Results from patent US20240018122A1, “PYRIDAZINYL AMINO DERIVATIVES AS ALK5 INHIBITORS” (CHIESI FARMACEUTICI S.P.A., priority 2020, published 2024).
Where two headings read alike, the source gives them in different places.

Target: human ALK5 (Homo sapiens (Human), UniProt P36897)
Assay: ADP-GLO Kinases assay, inhibitory activity on ALK5
Type: biochemical
Experimental: The enzymatic activity of compounds of the present invention was monitored measuring the formation of ADP using the ADP-GLO Kinases assay. Following the incubation of the purified enzyme, a substrate and ATP, the produced ADP was converted into ATP, which in turn was converted into light by Ultra-Glo Luciferase. The luminescent signal positively correlated with ADP amount and kinase activity. […] The assay was performed in 384-well format and was validated using a selection of reference compounds that was tested in 11 point concentration-response curve.

[1] = purified recombinant human ALK5 2.6 nM, TGFβ1 peptide substrate, 25° C, 150 min incubation, ADP-Glo detection, read-out: ALK5 IC50

human ALK5, sequence (P36897 80-503 limits assumed): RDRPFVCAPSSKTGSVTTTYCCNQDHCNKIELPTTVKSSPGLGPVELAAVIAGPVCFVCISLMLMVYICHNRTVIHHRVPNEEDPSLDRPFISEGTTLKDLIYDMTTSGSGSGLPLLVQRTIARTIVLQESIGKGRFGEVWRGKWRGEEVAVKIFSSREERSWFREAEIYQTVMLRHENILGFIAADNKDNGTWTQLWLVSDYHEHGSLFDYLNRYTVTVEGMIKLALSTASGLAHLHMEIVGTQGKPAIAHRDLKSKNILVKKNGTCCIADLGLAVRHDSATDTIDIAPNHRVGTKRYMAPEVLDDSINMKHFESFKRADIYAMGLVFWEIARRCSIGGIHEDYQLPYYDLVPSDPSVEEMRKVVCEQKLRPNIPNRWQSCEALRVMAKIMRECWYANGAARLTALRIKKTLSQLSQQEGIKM

SMILES	IC50 [1] [nM]	IC50 [nM]
CN1CCN(CCC(=O)Nc2cc(Nc3cnnc(-c4cc(Cl)ccc4F)c3)ccn2)CC1=O [Example 24, N-(4-{[6-(5-Chloro-2-Fluorophenyl)Pyridazin-4-Yl]Amino}Pyridin-2-Yl)-3-(4-Methyl-3-Oxopiperazin-1-Yl)Propanamide]	1 to 5	–
Cc1nnc(-c2cc(Cl)ccc2F)cc1Nc1ccnc(NC(=O)CCN2CCNC(CC(=O)O)C2)c1 (stereo not shown) [Example 116, 2-(4-{2-[(4-{[6-(5-chloro-2-fluorophenyl)-3-methylpyridazin-4-yl]amino}pyridin-2-yl)carbamoyl]ethyl}piperazin-2-yl)acetic acid]	< 1	–
Cc1nnc(-c2cc(Cl)ccc2F)cc1Nc1ccnc(NC(=O)CCN2CC3CC(C2)N3C)c1 [Example 146, N-(4-{[6-(5-Chloro-2-Fluorophenyl)-3-Methylpyridazin-4-Yl]Amino}Pyridin-2-Yl)-3-{6-Methyl-3,6-Diazabicyclo[3.1.1]Heptan-3-Yl}Propanamide]	< 1	–
CC(=O)N1CCCN(CCC(=O)Nc2cc(Nc3cnnc(-c4cc(Cl)ccc4F)c3)ccn2)C1 [Example 43, 3-(3-Acetyl-1,3-Diazinan-1-Yl)-N-(4-{[6-(5-Chloro-2-Fluorophenyl)Pyridazin-4-Yl]Amino}Pyridin-2-Yl)Propanamide]	1 to 5	–
COC(=O)CC1CNCCN1CCC(=O)Nc1cc(Nc2cc(-c3cc(Cl)ccc3F)nnc2C)ccn1 (stereo not shown) [Example 102, Methyl 2-(1-{2-[(4-{[6-(5-Chloro-2-Fluorophenyl)-3-Methylpyridazin-4-Yl]Amino}Pyridin-2-Yl)Carbamoyl]Ethyl}Piperazin-2-Yl)Acetate]	< 1	–
Cc1nnc(-c2cc(Cl)ccc2F)cc1Nc1ccnc2cc(OC(=O)N3CC(N4CCCC4)C3)ccc12 [Example 152, 4-{[6-(5-Chloro-2-Fluorophenyl)-3-Methylpyridazin-4-Yl]Amino}Quinolin-7-Yl 3-(Pyrrolidin-1-Yl)Azetidine-1-Carboxylate]	< 1	–
Cc1nnc(-c2cc(Cl)ccc2F)cc1Nc1ccnc2cc(OC(=O)N3CC4CC3CN4C)ccc12 (stereo not shown) [Example 128, 4-{[6-(5-Chloro-2-Fluorophenyl)-3-Methylpyridazin-4-Yl]Amino}Quinolin-7-Yl 5-Methyl-2,5-Diazabicyclo[2.2.1]Heptane-2-Carboxylate]	–	< 1
Cc1nnc(-c2cc(Cl)ccc2F)cc1Nc1ccnc2cc(OC(=O)N3CCN(CCC4CCN(C)CC4)CC3)ccc12 [Example 81, 4-{[6-(5-Chloro-2-Fluorophenyl)-3-Methylpyridazin-4-Yl]Amino}Quinolin-7-Yl 4-[2-(1-Methylpiperidin-4-Yl)Ethyl]Piperazine-1-Carboxylate]	< 1	–
Cc1nnc(-c2cc(Cl)ccc2F)cc1Nc1ccnc(NC(=O)CCN2CCN(C)CC2)c1 [Example 16, N-(4-{[6-(5-chloro-2-fluorophenyl)-3-methylpyridazin-4-yl]amino}pyridin-2-yl)-3-(4-methylpiperazin-1-yl)propanamide]	< 1	–
CC(=O)N1CCCN(CCOc2ccc3c(Nc4cnnc(-c5cc(Cl)ccc5F)c4)ccnc3c2)C1 [Example 56, 1-(3-{2-[(4-{[6-(5-Chloro-2-Fluorophenyl)Pyridazin-4-Yl]Amino}Quinolin-7-Yl)Oxy]Ethyl}-1,3-Diazinan-1-Yl)Ethan-1-One]	< 1	–
Cc1nnc(-c2cc(Cl)ccc2F)cc1Nc1ccnc(NC(=O)CN2CCOCC2)c1 [Example 117, N-(4-{[6-(5-Chloro-2-Fluorophenyl)-3-Methylpyridazin-4-Yl]Amino}Pyridin-2-Yl)-2-(Morpholin-4-Yl)Acetamide]	< 1	–
O=C(CCN1CCCN(CC(F)(F)F)C1)Nc1cc(Nc2cnnc(-c3cc(Cl)ccc3F)c2)ccn1 [Example 59]	1 to 5	–
CN1CCN(CCNC(=O)c2ccc3c(Nc4cnnc(-c5cc(Cl)ccc5F)c4)ccnc3c2)CC1 [Example 13, 4-{[6-(5-Chloro-2-Fluorophenyl)Pyridazin-4-Yl]Amino}-N-[3-(4-Methylpiperazin-1-Yl)Ethyl]Quinoline-7-Carboxamide]	< 1	–
CCN1CCN(CCOc2ccc3c(Nc4cnnc(-c5cc(Cl)ccc5F)c4)ccnc3c2)CC1 [Example 30, N-[6-(5-Chloro-2-Fluorophenyl)Pyridazin-4-Yl]-7-[2-(4-Ethylpiperazin-1-Yl)Ethoxy]Quinolin-4-Amine]	< 1	–
Cc1nnc(-c2cc(Cl)ccc2F)cc1Nc1ccnc(NC(=O)CCN2CCN(C)C(C)C2)c1 (stereo not shown) [Example 145, N-(4-{[6-(5-Chloro-2-Fluorophenyl)-3-Methylpyridazin-4-Yl]Amino}Pyridin-2-Yl)-3-(3,4-Dimethylpiperazin-1-Yl)Propanamide]	< 1	–
CN1CCCN(CCC(=O)Nc2cc(Nc3cnnc(-c4cc(Cl)ccc4F)c3)ccn2)C1 [Example 33, N-(4-{[6-(5-Chloro-2-Fluorophenyl)Pyridazin-4-Yl]Amino}Pyridin-2-Yl)-3-(3-Methyl-1,3-Diazinan-1-Yl)Propanamide]	< 1	–
CS(=O)(=O)N1CCN(CCC(=O)Nc2cc(Nc3cnnc(-c4cc(Cl)ccc4F)c3)ccn2)CC1 [Example 34, N-(4-{[6-(5-Chloro-2-Fluorophenyl)Pyridazin-4-Yl]Amino}Pyridin-2-Yl)-3-(4-Methanesulfonylpiperazin-1-Yl)Propanamide]	1 to 5	–
CN1CCC2(CC1)CCN(C(=O)Oc1ccc3c(Nc4cnnc(-c5cc(Cl)ccc5F)c4)ccnc3c1)C2 [Example 118, 4-{[6-(5-Chloro-2-Fluorophenyl)Pyridazin-4-Yl]Amino}Quinolin-7-Yl 8-Methyl-2,8-Diazaspiro[4.5]Decane-2-Carboxylate]	< 1	–
Nc1nccc(Nc2cnnc(-c3cc(Cl)ccc3F)c2)n1 [Example C2, N4-[6-(5-chloro-2-fluorophenyl)pyridazin-4-yl]pyrimidine-2,4-diamine, reference compound]	482	–
CC(=O)N1CCN(CCOc2ccc3c(Nc4cnnc(-c5cc(Cl)ccc5F)c4)ccnc3c2)CC1 [Example 35, 1-(4-{2-[(4-{[6-(5-Chloro-2-Fluorophenyl)Pyridazin-4-Yl]Amino}Quinolin-7-Yl)Oxy]Ethyl}Piperazin-1-Yl)Ethan-1-One]	< 1	–

Second part, led by results:

IC50 [1] [nM]	SMILES	IC50 [nM]
< 1	Cc1nnc(-c2cc(Cl)ccc2F)cc1Nc1ccnc(NC(=O)CCN2CCOCC2)c1 [Example 78, N-(4-{[6-(5-Chloro-2-Fluorophenyl)-3-Methylpyridazin-4-Yl]Amino}Pyridin-2-Yl)-3-(Morpholin-4-Yl)Propanamide]	–
< 1	CN1CCCN(CCOc2ccc3c(Nc4cnnc(-c5cc(Cl)ccc5F)c4)ccnc3c2)C1 [Example 62, N-[6-(5-Chloro-2-Fluorophenyl)Pyridazin-4-Yl]-7-[2-(3-Methyl-1,3-Diazinan-1-Yl)Ethoxy]Quinolin-4-Amine]	–
< 1	CN1CCN(CCC(=O)Nc2cc(Nc3cc(-c4cc(Cl)ccc4F)nnc3C(F)(F)F)ccn2)CC1 [Example 182, N-(4-{[6-(5-Chloro-2-Fluorophenyl)-3-(Trifluoromethyl) Pyridazin-4-Yl]Amino}Pyridin-2-Yl)-3-(4-Methylpiperazin-1-Yl)Propanamide]	–
< 1	Cc1nnc(-c2cc(Cl)ccc2F)cc1Nc1ccnc(NC(=O)CCN2CCOC3(CN(C)C3)C2)c1 [Example 147, N-(4-{[6-(5-chloro-2-fluorophenyl)-3-methylpyridazin-4-yl]amino}pyridin-2-yl)-3-{2-methyl-5-oxa-2,8-diazaspiro[3.5]nonan-8-yl}propanamide]	–
< 1	COC(=O)N(C)CCN1CCN(CC(=O)Nc2cc(Nc3cc(-c4cc(Cl)ccc4F)nnc3CO)ccn2)CC1 [Example 175, Methyl N-[2-(4-{[(4-{[6-(5-Chloro-2-Fluorophenyl)-3-(Hydroxymethyl)Pyridazin-4-Yl]Amino}Pyridin-2-Yl)Carbamoyl]Methyl}Piperazin-1-Yl)Ethyl]-N-Methylcarbamate]	–
< 1	Cc1nnc(-c2cc(Cl)ccc2F)cc1Nc1ccnc(NC(=O)CCN2CCNCC2)c1 [Example 74, N-(4-{[6-(5-chloro-2-fluorophenyl)-3-methylpyridazin-4-yl]amino}pyridin-2-yl)-3-(piperazin-1-yl)propanamide]	–
< 1	Cc1nnc(-c2cc(Cl)ccc2F)cc1Nc1ccnc(NC(=O)CCN2CCN(CCNS(C)(=O)=O)CC2)c1 [Example 136, N-(4-{[6-(5-Chloro-2-Fluorophenyl)-3-Methylpyridazin-4-Yl]Amino}Pyridin-2-Yl)-3-[4-(2-Methanesulfonamidoethyl)Piperazin-1-Yl]Propanamide]	–
1 to 5	Cc1nnc(-c2cc(Cl)ccc2F)cc1Nc1ccnc(NC(=O)C2CCN(C)CC2)c1 [Example 88, N-(4-{[6-(5-Chloro-2-Fluorophenyl)-3-Methylpyridazin-4-Yl]Amino}Pyridin-2-Yl)-1-Methylpiperidine-4-Carboxamide]	–
< 1	N#CCCN1CCN(CCC(=O)Nc2cc(Nc3cc(-c4cc(Cl)ccc4F)nnc3C(F)(F)F)ccn2)CC1 [Example 186, N-(4-{[6-(5-chloro-2-fluorophenyl)-3-(trifluoromethyl)pyridazin-4-yl]amino}pyridin-2-yl)-3-[4-(2-cyanoethyl)piperazin-1-yl]propenamide]	–
< 1	Cc1nnc(-c2cc(Cl)ccc2F)cc1Nc1ccnc(NC(=O)CCN2CC3(CN(C)C3)C2)c1 [Example 138, N-(4-{[6-(5-Chloro-2-Fluorophenyl)-3-Methylpyridazin-4-Yl]Amino}Pyridin-2-Yl)-3-{6-Methyl-2,6-Diazaspiro[3.3]Heptan-2-Yl}Propanamide]	–
< 1	COC(=O)NCCN1CCN(CC(=O)Nc2cc(Nc3cc(-c4cc(Cl)ccc4F)nnc3C)ccn2)CC1 [Example 109, methyl N-[2-(4-{[(4-{[6-(5-chloro-2-fluorophenyl)-3-methylpyridazin-4-yl]amino}pyridin-2-yl)carbamoyl]methyl}piperazin-1-yl)ethyl]carbamate]	–
